Columns and labels:
Giardia intestinalis [1] = assay: Giardicidal activity against Giardia intestinalis WB ATCC 30957 incubated for 48 hrs by hemocytometric counting method; assay type: functional, organism-based; conditions: Giardia duodenalis, WB ATCC 30957, 48 h
Giardia intestinalis [2] = assay: Giardicidal activity against nitazoxanide-resistant Giardia intestinalis incubated for 48 hrs by hemocytometric counting method; assay type: functional, organism-based; conditions: Giardia duodenalis
Giardia intestinalis [3] = assay: Giardicidal activity against albendazole-resistant Giardia intestinalis incubated for 48 hrs by hemocytometric counting method; assay type: functional, organism-based; conditions: Giardia duodenalis
Giardia intestinalis [4] = assay: Giardicidal activity against metronidazole-resistant Giardia intestinalis incubated for 48 hrs by hemocytometric counting method; assay type: functional, organism-based; conditions: Giardia duodenalis
Giardia intestinalis [5] = assay: Giardicidal activity against Giardia intestinalis IMSS isolate incubated for 48 hrs by hemocytometric counting method; assay type: functional, organism-based; conditions: Giardia duodenalis
Giardia intestinalis [6] = assay: Potency index, ratio of nitazoxanide IC50 to test compound IC50 for Giardicidal activity against nitazoxanide-resistant Giardia intestinalis incubated for 48 hrs by hemocytometric counting method; assay type: functional, Giardia duodenalis
Giardia intestinalis [7] = assay: Potency index, ratio of albendazole IC50 to test compound IC50 for Giardicidal activity against nitazoxanide resistant Giardia intestinalis incubated for 48 hrs by hemocytometric counting method; assay type: functional, Giardia duodenalis
Giardia intestinalis [8] = assay: Potency index, ratio of metronidazole IC50 to test compound IC50 for Giardicidal activity against metronidazole-resistant Giardia intestinalis incubated for 48 hrs by hemocytometric counting method; assay type: functional, Giardia duodenalis
Giardia intestinalis [9] = assay: Potency index, ratio of albendazole IC50 to test compound IC50 for Giardicidal activity against albendazole-resistant Giardia intestinalis incubated for 48 hrs by hemocytometric counting method; assay type: functional, Giardia duodenalis

Row | Structure (SMILES) | IC50 (Giardia intestinalis [1]) [nM] | IC50 (Giardia intestinalis [2]) [nM] | IC50 (Giardia intestinalis [3]) [nM] | IC50 (Giardia intestinalis [4]) [nM] | IC50 (Giardia intestinalis [5]) [nM] | Ratio IC50 (Giardia intestinalis [6]) | Ratio IC50 (Giardia intestinalis [7]) | Ratio IC50 (Giardia intestinalis [8]) | Ratio IC50 (Giardia intestinalis [9])
1 | CCCSc1ccc2[nH]c(NC(=O)OC)nc2c1 [ALBENDAZOLE] | 47 | 277 | 137 | – | – | – | – | – | –
2 | CCOc1ccc2nc(SCCN3CCOCC3)[nH]c2c1 [FABOMOTIZOLE] | 31 | 65 | 50 | 50 | 29 | – | – | – | –
3 | CC(C)Oc1ccc2c(=O)c(-c3ccccc3)coc2c1 [IPRIFLAVONE] | 34 | 14 | 45 | 510 | 25 | – | – | – | –
4 | CCOC(=O)Nc1nc2ccccc2[nH]1 [LOBENDAZOLE] | 85 | 61 | 916 | 200 | 37 | 32 | 4.5 | – | –
5 | Cc1ncc([N+](=O)[O-])n1CCO [METRONIDAZOLE] | – | – | 1630 | 1850 | – | – | – | – | –
6 | CC(=O)Oc1ccccc1C(=O)Nc1ncc([N+](=O)[O-])s1 [NITAZOXANIDE] | 18 | 1970 | 21 | 17 | 15 | – | – | – | –
7 | COc1ccc2[nH]c([S+]([O-])Cc3ncc(C)c(OC)c3C)nc2n1 (stereo not given) [TENATOPRAZOLE] | 19 | 49 | 27 | 59 | 20 | 40 | – | 31 | 5
